Data: publication PMC4965013, “Open Source Drug Discovery with the Malaria Box Compound Collection for Neglected Diseases and Beyond” (PLoS Pathogens, 2016)

Key:
[1] = tested on: P. falciparum 3D7 trophozoites; test: Metabolomic fingerprint profiling LC-MS; format: cell-based, Plasmodium falciparum; parameters: UDP-D-glucose / ADP-D-glucose: unit not given here; settings: for Acetyllysine / N-acetyl-L-ornithine / N-carbamoyl-L-aspartate / NADPH / dAMP / dCMP / dTDP / dTMP / dTTP / dihydroorotate / orotate / DLH / DLS/SDL/SID / PD / PEE / PVNF / 3-phosphoglycerate / ADP-D-glucose / ATP / CDP / D-sedoheptulose-1/7-phosphate / FAD / GMP / NAD+ / NADP+ / Octoluse Bisphosphate / Pyroglutamic acid / UDP-D-glucose / UDP-D-glucuronate / UDP-N-acetyl-glucosamine / UDP / UMP / UTP / a-ketoglutarate / citrate/isocitrate / cytidine / dATP / dGMP/AMP / fumarate / glucose-1/6-phosphate / glycerate / guanine / guanosine / hypoxanthine / indole / inosine / nicotinate / ornithine / phosphoenolpyruvate / pyruvate / ribose-phosphate / sarcosine/alanine / sn-glycerol-3-phosphate / succinate/methylmalonic acid / uridine / xanthosine: S2 Table Metabolomics; for Acetyllysine: metabolite Acetyllysine; for N-acetyl-L-ornithine: metabolite N-acetyl-L-ornithine; for N-carbamoyl-L-aspartate: metabolite N-carbamoyl-L-aspartate; for NADPH: metabolite NADPH; for dAMP: metabolite dAMP; for dCMP: metabolite dCMP; for dTDP: metabolite dTDP; for dTMP: metabolite dTMP; for dTTP: metabolite dTTP; for dihydroorotate: metabolite dihydroorotate; for orotate: metabolite orotate; for DLH: peptide DLH; for DLS/SDL/SID: peptide DLS/SDL/SID; for PD: peptide PD; for PEE: peptide PEE; for PVNF: peptide PVNF; for 3-phosphoglycerate: metabolite 3-phosphoglycerate; for ADP-D-glucose: metabolite ADP-D-glucose; for ATP: metabolite ATP; for CDP: metabolite CDP; for CDP / D-sedoheptulose-1/7-phosphate / GMP / Octoluse Bisphosphate / UDP / UMP / UTP / citrate/isocitrate / dGMP/AMP / fumarate / glucose-1/6-phosphate / glycerate / guanine / guanosine / inosine / pyruvate / sarcosine/alanine / succinate/methylmalonic acid / uridine / xanthosine: change in metabolite level after compound treatment; for D-sedoheptulose-1/7-phosphate: metabolite D-sedoheptulose-1/7-phosphate; for FAD: metabolite FAD; for GMP: metabolite GMP; for NAD+: metabolite NAD+; for NADP+: metabolite NADP+; for Octoluse Bisphosphate: metabolite Octoluse Bisphosphate; for Pyroglutamic acid: metabolite Pyroglutamic acid; for UDP-D-glucose: metabolite UDP-D-glucose; for UDP-D-glucuronate: metabolite UDP-D-glucuronate; for UDP-N-acetyl-glucosamine: metabolite UDP-N-acetyl-glucosamine; for UDP: metabolite UDP; for UMP: metabolite UMP; for UTP: metabolite UTP; for a-ketoglutarate: metabolite a-ketoglutarate; for citrate/isocitrate: metabolite citrate/isocitrate; for cytidine: metabolite cytidine; for dATP: metabolite dATP; for dGMP/AMP: metabolite dGMP/AMP; for fumarate: metabolite fumarate; for glucose-1/6-phosphate: metabolite glucose-1/6-phosphate; for glycerate: metabolite glycerate; for guanine: metabolite guanine; for guanosine: metabolite guanosine; for hypoxanthine: metabolite hypoxanthine; for indole: metabolite indole; for inosine: metabolite inosine; for 2_3-Diphosphoglyceric acid / 4-phosphopantothenate / 6-phospho-D-gluconate / FMN / IMP / Pyrophosphate / Sedoheptoluse bisphosphate / cyclic-AMP / glutathione disulfide / lactate / myo-inositol: metabolite level change after treatment; for nicotinate: metabolite nicotinate; for ornithine: metabolite ornithine; for phosphoenolpyruvate: metabolite phosphoenolpyruvate; for pyruvate: metabolite pyruvate; for ribose-phosphate: metabolite ribose-phosphate; for sarcosine/alanine: metabolite sarcosine/alanine; for sn-glycerol-3-phosphate: metabolite sn-glycerol-3-phosphate; for succinate/methylmalonic acid: metabolite succinate/methylmalonic acid; for uridine: metabolite uridine; for xanthosine: metabolite xanthosine
P. falciparum = test: EC50 listed in S2 Table Metabolomics (used to set the concentration tested); format: cell-based; settings: Plasmodium falciparum; EC50 used for Factor_XEC50 in metabolomics; read-out: EC50_nM

Cc1ccc(N2C(=O)C3C(C2=O)C2(c4ccccc4)C(=O)C3(c3ccccc3)C(c3ccccc3)=C2c2ccccc2)cc1 (stereo not shown) [MMV666062]
Acetyllysine [1]: -0.1709 | N-acetyl-L-ornithine [1]: -0.324 | N-carbamoyl-L-aspartate [1]: -0.2951 | NADPH [1]: -0.2149 | dAMP [1]: -0.4875 | dCMP [1]: -0.7263 | dTDP [1]: -0.1985 | dTMP [1]: -0.6991 | dTTP [1]: -0.2344 | dihydroorotate [1]: -0.213 | orotate [1]: -0.7199 | DLH [1]: -0.006238 | DLS/SDL/SID [1]: -0.3315 | PD [1]: -0.3487 | PEE [1]: -0.01834 | PVNF [1]: -0.09341 | 3-phosphoglycerate [1]: -1.0087 | ADP-D-glucose [1]: -0.2764 | ATP [1]: -0.1502 | CDP [1]: -0.3978 | D-sedoheptulose-1/7-phosphate [1]: -0.4359 | FAD [1]: -0.2118 | GMP [1]: -0.3584 | NAD+ [1]: -0.2488 | NADP+ [1]: -0.1786 | Octoluse Bisphosphate [1]: -0.3963 | Pyroglutamic acid [1]: -0.08618 | UDP-D-glucose [1]: -0.2942 | UDP-D-glucuronate [1]: -0.1481 | UDP-N-acetyl-glucosamine [1]: -0.3667 | UDP [1]: -0.4806 | UMP [1]: -0.3962 | UTP [1]: -0.1426 | a-ketoglutarate [1]: -0.4814 | citrate/isocitrate [1]: -0.07191 | cytidine [1]: -0.4412 | dATP [1]: -0.199 | dGMP/AMP [1]: -0.7601 | fumarate [1]: -0.1898 | glucose-1/6-phosphate [1]: 0.1468 | glycerate [1]: -0.3247 | guanine [1]: -0.8033 | guanosine [1]: -0.4206 | hypoxanthine [1]: -0.5014 | indole [1]: -0.4173 | inosine [1]: -0.516 | 2_3-Diphosphoglyceric acid [1]: -0.1968 | 4-phosphopantothenate [1]: -0.3798 | 6-phospho-D-gluconate [1]: -0.105 | FMN [1]: -0.4755 | IMP [1]: -0.5384 | Pyrophosphate [1]: -0.0001746 | Sedoheptoluse bisphosphate [1]: -0.4955 | cyclic-AMP [1]: -0.438 | glutathione disulfide [1]: -0.4046 | lactate [1]: -0.3401 | myo-inositol [1]: 0.6705 | nicotinate [1]: -0.6806 | ornithine [1]: -0.4373 | phosphoenolpyruvate [1]: -0.3807 | pyruvate [1]: -0.5819 | ribose-phosphate [1]: -0.7488 | sarcosine/alanine [1]: -0.5636 | sn-glycerol-3-phosphate [1]: -0.1452 | succinate/methylmalonic acid [1]: -0.2494 | uridine [1]: -0.8945 | xanthosine [1]: -0.2816 | EC50 (P. falciparum): 282 nM

CCCCCC(=O)N1c2ccccc2N=C2CC(c3ccc(OC)c(OC)c3)CC(O)=C2C1c1ccc(C(F)(F)F)cc1 (stereo not shown) [MMV085583]
Acetyllysine [1]: -3.233 | N-acetyl-L-ornithine [1]: -2.906 | N-carbamoyl-L-aspartate [1]: -0.5597 | NADPH [1]: 1.284 | dAMP [1]: 0.2596 | dCMP [1]: -0.4552 | dTDP [1]: -0.3582 | dTMP [1]: -0.9265 | dTTP [1]: 0.1067 | dihydroorotate [1]: -0.6697 | orotate [1]: -1.058 | DLH [1]: -2.5 | DLS/SDL/SID [1]: -2.559 | PD [1]: -2.735 | PEE [1]: -2.9857 | PVNF [1]: -3.329 | 3-phosphoglycerate [1]: 0.3606 | ADP-D-glucose [1]: -0.0158 | ATP [1]: -0.07202 | CDP [1]: -0.3911 | D-sedoheptulose-1/7-phosphate [1]: -0.5433 | FAD [1]: -0.3185 | GMP [1]: -0.4734 | NAD+ [1]: -0.2717 | NADP+ [1]: 0.1968 | Octoluse Bisphosphate [1]: -0.2833 | Pyroglutamic acid [1]: -0.1555 | UDP-D-glucose [1]: -0.1587 | UDP-D-glucuronate [1]: -0.1055 | UDP-N-acetyl-glucosamine [1]: -0.2414 | UDP [1]: -0.8399 | UMP [1]: -0.6631 | UTP [1]: -0.1073 | a-ketoglutarate [1]: -0.8202 | citrate/isocitrate [1]: -0.2512 | cytidine [1]: -0.09635 | dATP [1]: 0.2253 | dGMP/AMP [1]: -0.1442 | fumarate [1]: -0.4715 | glucose-1/6-phosphate [1]: -0.3133 | glycerate [1]: -0.7263 | guanine [1]: -0.4303 | guanosine [1]: -0.4531 | hypoxanthine [1]: -0.4709 | indole [1]: -0.4645 | inosine [1]: -0.4523 | 2_3-Diphosphoglyceric acid [1]: 0.1524 | 4-phosphopantothenate [1]: -0.4091 | 6-phospho-D-gluconate [1]: -0.01182 | FMN [1]: -0.2086 | IMP [1]: -0.3529 | Pyrophosphate [1]: 0.1499 | Sedoheptoluse bisphosphate [1]: 0.0221 | cyclic-AMP [1]: -0.3292 | glutathione disulfide [1]: -0.6201 | lactate [1]: -0.8724 | myo-inositol [1]: -1.425 | nicotinate [1]: 0.07742 | ornithine [1]: 0.02649 | phosphoenolpyruvate [1]: 0.334 | pyruvate [1]: -0.3941 | ribose-phosphate [1]: -0.07903 | sarcosine/alanine [1]: -0.9167 | sn-glycerol-3-phosphate [1]: 0.1681 | succinate/methylmalonic acid [1]: -0.405 | uridine [1]: -0.7297 | xanthosine [1]: 0.125 | EC50 (P. falciparum): 237 nM
